The target in the assay is T1, human LPAAT-β (Homo sapiens, UniProt O15120).
T1 construct: the full-length human LPAAT-β cDNA was amplified by PCR; poly-histidine tag (N); made in house; host or cells: Sf9 insect cells (baculovirus, pFastBac HTc); the membrane fraction was used as the enzyme
T1 sequence (O15120 24-278): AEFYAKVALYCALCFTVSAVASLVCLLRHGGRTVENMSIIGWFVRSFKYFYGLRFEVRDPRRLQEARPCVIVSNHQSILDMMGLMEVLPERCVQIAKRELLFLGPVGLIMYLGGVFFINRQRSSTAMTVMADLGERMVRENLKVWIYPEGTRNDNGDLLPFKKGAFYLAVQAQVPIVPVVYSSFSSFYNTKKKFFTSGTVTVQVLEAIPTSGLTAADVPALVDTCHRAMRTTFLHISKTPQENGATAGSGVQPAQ
Nature of the assay: LPAAT-β cell-free assay. It counts as biochemical. The conditions noted are these: Sf9 cell membrane overexpressing recombinant LPAAT-β. The gist of the method:
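Membranes from Sf9 cells expressing His/myc-tagged full-length human LPAAT-β were used in HEPES-saline pH 7.5 with 1 mg/ml BSA. Compound was added from a 200 μM DMSO stock, and reaction with 18:1-CoA and sn-1-18:1 lysoPA (1 mM stocks) ran 25 min at RT. Released CoA was detected with DTNB at 405 nm; a radiometric variant used 200 μM [14C]18:1-CoA and 200 μM lysoPA.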
By IC50 is commonly meant the midpoint of a concentration-inhibition curve. As for `Nc1nc(Nc2ccc(Br)cc2)cc(-c2cc(Br)ccc2OCC(F)(F)F)n1` [Example 91, N*4*-(4-Bromo-phenyl)-6-[5-bromo-2-(2,2,2-trifluoro-ethoxy)-phenyl]-pyrimidine-2,4-diamine], the IC50 amounted to 190 nM. The value for `CCOc1ccc(Cl)cc1-c1cc(Nc2ccc(CCCO)cc2)nc(N)n1` [Example 92, 3-{4-[2-Amino-6-(5-chloro-2-ethoxy-phenyl)-pyrimidin4-ylamino]-phenyl}-propan-1-ol] was 230 nM; that for `CCOc1ccc(Cl)cc1-c1cc(Nc2ccc(CCCCO)cc2)nc(N)n1` [Example 93, 4-{4-[2-Amino-6-(5-chloro-2-ethoxy-phenyl)-pyrimidin4-ylamino]-phenyl}-butan-1-ol] was 120 nM; that for `CCOc1ccc(Cl)cc1-c1cc(Nc2ccc(F)cc2)nc(N)n1` [Example 94, 6-(5-Chloro-2-ethoxy-phenyl)-N*4*-(4-fluoro-phenyl)-pyrimidine-2,4-diamine] was 32 nM.

On to `CCOc1ccc(Cl)cc1-c1cc(Nc2ccc(CCCC(=O)O)cc2)nc(N)n1` [Example 95, 4-{4-[2-Amino-6-(5-chloro-2-ethoxy-phenyl)-pyrimidin4-ylamino]-phenyl}-butyric acid], for which the IC50 was 310 nM.

Regarding `CCOc1ccc(Cl)cc1-c1cc(Nc2ccc(S(N)(=O)=O)cc2)nc(N)n1` [Example 96, 4-[2-Amino-6-(5-chloro-2-ethoxy-phenyl)-pyrimidin-4-ylamino]-benzenesulfonamide], the IC50 is 73 nM. To `Cc1ccc(Cl)cc1-c1cc(Nc2ccc(F)cc2)nc(N)n1` [Example 97, 6-(5-Chloro-2-methyl-phenyl)-N*4*-(4-fluoro-phenyl)-pyrimidine-2,4-diamine] belongs 73 nM. To `Nc1nc(Nc2ccc(Cl)cc2)cc(-c2cc(Cl)cc(Cl)c2Cl)n1` [Example 98, N*4*-(4-Chloro-phenyl)-6-(2,3,5-trichloro-phenyl)-pyrimidine-2,4-diamine] belongs 91 nM. The value for `Nc1nc(Nc2ccc(Br)cc2)cc(-c2cc(Cl)cc(Cl)c2Cl)n1` [Example 99, N*4*-(4-Bromo-phenyl)-6-(2,3,5-trichloro-phenyl)-pyrimidine-2,4-diamine] was 130 nM; that for `Cc1ccc(Br)cc1-c1cc(Nc2ccc(CCO)cc2)nc(N)n1` [Example 100, 2-{4-[2-Amino-6-(5-bromo-2-methyl-phenyl)-pyrimidin-4-ylamino]-phenyl}-ethanol] was 49 nM; that for `Cc1ccc(Br)cc1-c1cc(Nc2ccc(CCCCO)cc2)nc(N)n1` [Example 101, 4-{4-[2-Amino-6-(5-bromo-2-methyl-phenyl)-pyrimidin4-ylamino]-phenyl}-butan-1-ol] was 290 nM.

Turning to `Nc1nc(Nc2ccc(C(F)(F)F)cc2)cc(-c2cc(Cl)cc(Cl)c2Cl)n1` [Example 102, 6-(2,3,5-trichloro-phenyl) N*4*-(4-trifluoromethyl-phenyl)-pyrimidine-2,4-diamine], the IC50 is 500 nM. The value for `Cc1ccc(Cl)cc1-c1cc(Nc2ccc(C(O)C(F)(F)F)cc2)nc(N)n1` (centres unmarked) [Example 103, 1-{4-[2-Amino-6-(5-chloro-2-methyl-phenyl)-pyrimidin4-ylamino]-phenyl}-2,2,2-trifluoro-ethanol] was 54 nM; that for `CC(=NO)c1ccc(Nc2cc(-c3cc(Cl)ccc3C)nc(N)n2)cc1` [Example 104, 1-{4-[2-Amino-6-(5-chloro-2-methyl-phenyl)-pyrimidin-4-ylamino]-phenyl}-ethanone-oxime] was 160 nM; that for `Nc1nc(Nc2ccc(Cl)cc2)cc(-c2ccccc2C(F)(F)F)n1` [Example 105, N*4*-(4-Chloro-phenyl)-6-(2-trifluoromethyl-phenyl)-pyrimidine-2,4-diamine] was 1800 nM. To `Nc1nc(Nc2ccc(Cl)cc2)cc(-c2ccccc2)n1` [Example 106, N*4*-(4-Chloro-phenyl)-6-phenyl-pyrimidine-2,4-diamine] belongs 1100 nM; to `Cc1ccc(Cl)cc1-c1cc(Nc2ccc([N+](=O)[O-])cc2)nc(N)n1` [Example 108, 6-(5-Chloro-2-methyl-phenyl)-N*4*-(4-nitro-phenyl)-pyrimidine-2,4-diamine], 15 nM; to `Cc1ccc(Cl)cc1-c1cc(Nc2ccc(CCCO)cc2)nc(N)n1` [Example 109, 3-{4-[2-Amino-6-(5-Chloro-2-methyl-phenyl)-pyrimidin-4-ylamino]-phenyl}-propan-1-ol], 850 nM.

As for `Cc1ccc(Cl)cc1-c1cc(Nc2ccc(CCCCO)cc2)nc(N)n1` [Example 110, 4-{4-[2-Amino-6-(5-Chloro-2-methyl-phenyl)-pyrimidin-4-ylamino]-phenyl}-butan-1-ol], the IC50 was determined as 210 nM. To `CSc1cccc(Nc2cc(-c3cc(Cl)ccc3C)nc(N)n2)c1` [Example 111, 6-(5-Chloro-2-methyl-phenyl)-N*4*-(3-methylsulfanyl-phenyl)-pyrimidine-2,4-diamine] belongs 280 nM; to `Nc1nc(Nc2ccc(C(F)(F)F)cc2)cc(-c2cc(Cl)cc(Cl)c2)n1` [Example 112, 6-(3,5-Dichloro-phenyl)-N*4*-(4-trifuoromethyl-phenyl)-pyrimidine-2,4-diamine], 640 nM. To `Cc1ccc(Cl)cc1-c1cc(Nc2ccc(Cl)c(CO)c2)nc(N)n1` [Example 113, {5-[2-Amino-6-(5-chloro-2-methyl-phenyl)-pyrimidin-4-ylamino]-2-chloro-phenyl}-methanol] belongs 190 nM; to `CCOC(=O)c1cccc(Nc2cc(-c3cc(Cl)ccc3C)nc(N)n2)c1` [Example 114, 3-[2-Amino-6-(5-chloro-2-methyl-phenyl)-pyrimidin4-ylamino]-benzoic acid ethyl ester], 42 nM; to `CCc1cccc(Nc2cc(-c3cc(Cl)ccc3C)nc(N)n2)c1` [Example 115, 6-(5-Chloro-2-methyl-phenyl)-N*4*-(3-ethyl-phenyl)-pyrimidine-2,4-diamine], 210 nM. The value for `Cc1ccc(Cl)cc1-c1cc(Nc2ccc(C(CO)CO)cc2)nc(N)n1` [Example 116, 2-{4-[2-Amino-6-(5-chloro-2-methyl-phenyl)-pyrimidin-2-yl-amino]-phenyl}-propane-1,3-diol] was 1100 nM; that for `CCOc1ccc(Cl)cc1-c1cc(Nc2ccccc2Cl)nc(N)n1` [Example 117, 6-(5-Chloro-2-ethoxy-phenyl)-N*4*-(2-chloro-phenyl)-pyrimidine-2,4-diamine] was 4900 nM. As for `Nc1nc(Nc2ccc(Cl)cc2)cc(-c2cccc(Cl)c2Cl)n1` [Example 118, 6-(2,3-Dichloro-phenyl)-N*4*-(4-chloro-phenyl)-pyrimidine-2,4-diamine], the IC50 was determined as 710 nM. In the case of `Nc1nc(Nc2ccc(C(F)(F)F)cc2)cc(-c2cccc(Br)c2)n1` [Example 119, 6-(3-Bromo-phenyl)-N*4*-(4-trifluoromethyl-phenyl)-pyrimidine-2,4-diamine], the IC50 turned out to be 610 nM.

On to `CCOc1ccc(Cl)cc1-c1cc(Nc2ccc(CC(C)(C)O)cc2)nc(N)n1` [Example 120, 1-{4-[2-amino-6-(5-chloro-2-ethoxyphenyl)pyrimidin-4-ylamino]phenyl}-2-methyl-propan-2-ol], for which the IC50 was 180 nM. To `CCOc1ccc(Cl)cc1-c1cc(Nc2ccc(C(C)=O)cc2)nc(N)n1` [Example 121, 1-{4-[2-amino-6-(5-chloro-2-ethoxyphenyl)pyrimidin-4-ylamino]phenyl}ethanone] belongs 49 nM.

As to `CCOc1ccc(Cl)cc1-c1cc(N(C)c2ccc(Cl)cc2)nc(N)n1` [Example 122, 6-(5-chloro-2-ethoxyphenyl)-N*4*-(4-chlorophenyl)-N*4*-methylpyrimidine-2,4-diamine], the IC50 stood at 1200 nM. To `CC(=O)c1ccc(Nc2cc(-c3cc(Cl)ccc3C)nc(N)n2)cc1` [Example 123, 1-{4-[2-amino-6-(5-chloro-2-methylphenyl)pyrimidin4-ylamino]phenyl}ethanone] belongs 150 nM. The value for `CCOc1ccc(Cl)cc1-c1cc(Nc2ccc(S(C)(=O)=O)cc2)nc(N)n1` [Example 124, 6-(5-chloro-2-ethoxyphenyl)-N*4*-(4-methanesulfonylphenyl)pyrimidine-2,4-diamine] was 110 nM. The value for `Cc1ccc(Cl)cc1-c1cc(Nc2ccc3[nH]nnc3c2)nc(N)n1` [Example 125, N*4*-(1H-Benzotriazol-5-yl)-6-(5-chloro-2-methylphenyl)pyrimidine-2,4-diamine] was 90 nM; that for `Cc1ccc(Cl)cc1-c1cc(Nc2ccc(C(F)(F)F)nc2)nc(N)n1` [Example 126, 6-(5-chloro-2-methylphenyl)-N*4*-(6-trifluoromethylpyridin-3-yl)pyrimidine-2,4-diamine] was 500 nM; that for `CCOc1ccc(Br)cc1-c1cc(Nc2ccc(C(C)=O)cc2)nc(N)n1` [Example 127, 1-{4-[2-amino-6-(5-bromo-2-ethoxyphenyl)pyrimidin-4-ylamino]phenyl}ethanone] was 34 nM. As to `CCOc1ccc(Br)cc1-c1cc(Nc2ccc(C(F)(F)F)nc2)nc(N)n1` [Example 128, 6-(5-bromo-2-ethoxyphenyl)-N*4*-(6-trifluoromethylpyridin-3-yl)-pyrimidine-2,4-diamine], the IC50 was found to be 190 nM. To `CCOc1ccc(Br)cc1-c1cc(Nc2ccc(C(O)C(F)(F)F)cc2)nc(N)n1` (centres unmarked) [Example 129, 1-{4-[2-Amino-6-(5-bromo-2-ethoxy-phenyl)-pyrimidin4-ylamino]-phenyl}-2,2,2-trifluoro-ethanol] belongs 14 nM.

The values are drawn from patent US7419984B2, “Pyrimidines and uses thereof” (Cell Therapeutics, Inc., priority 2002, dated 2008).
